Data reported in US20020065227A1, “Charged compounds comprising a nucleic acid binding moiety and uses therefor” (priority 2000, published 2002).
In brackets after ≈: the same amount, converted by molar mass. Several values for one entry are separate records, joined by “and”; a condition that tells them apart may be missing. Equal entries are not always repeated.

Experiments:
[1] = tested on: Staphylococcus aureus (29213); assay: MIC, NCCLS broth microdilution; format: cell-based; details: Staphylococcus aureus (29213)
Bacillus cereus (11778) = assay: MIC, NCCLS broth microdilution; format: cell-based
Esherichia coli (25922) = assay: MIC, NCCLS broth microdilution; format: cell-based, Escherichia coli; details: Escherichia coli (25922)
[2] = tested on: Candida albicans (38247) (Polyene resistant); assay: MIC, antifungal assay; format: cell-based
[3] = tested on: Streptococcus pyogenes (49339); assay: MIC, NCCLS broth microdilution; format: cell-based; details: Streptococcus pyogenes (49339); Table Ia: Streptococcus Group A(49339)
Micrococcus luteus (381) = assay: MIC, NCCLS broth microdilution; format: cell-based
[4] = tested on: Streptococcus pneumoniae (49619); assay: MIC, NCCLS broth microdilution; format: cell-based; details: Streptococcus pneumoniae (49619)
[5] = tested on: Staphylococcus aureus (33591) (methicillin resistant); assay: MIC, NCCLS broth microdilution; format: cell-based; details: Staphylococcus aureus (33591), methicillin resistant (MRSA)
[6] = tested on: Streptococcus pneumoniae (51422) (multiple drug resistant); assay: MIC, NCCLS broth microdilution; format: cell-based
[7] = tested on: Staphylococcus epidermidis (12228); assay: MIC, NCCLS broth microdilution; format: cell-based; details: Staphylococcus epidermidis (12228)
[8] = tested on: Enterococcus faecium (51559) (vacomycin resistant); assay: MIC, NCCLS broth microdilution; format: cell-based; details: Enterococcus faecium (51559), vancomycin resistant
[9] = tested on: Enterococcus faecalis (29212); assay: MIC, NCCLS broth microdilution; format: cell-based; details: Enterococcus faecalis (29212)
[10] = tested on: Corynebacterium Group A (49676); assay: MIC, NCCLS broth microdilution; format: cell-based; details: Corynebacterium Group A (49676)
[11] = tested on: Pseudomona aeruginosa (27853); assay: MIC, NCCLS broth microdilution; format: cell-based; details: Pseudomona aeruginosa (27853)
[12] = tested on: Propionibacterium acnes (33179); assay: MIC, NCCLS broth microdilution; format: cell-based; details: anaerobe
AGTACT = assay: DNase I footprint titration, AGTACT site; format: binding; details: equilibrium association constant Ka; pH 7.0, 22° C.
ATTACT = assay: DNase I footprint titration, ATTACT site; format: binding; details: equilibrium association constant Ka; pH 7.0, 22° C.
[13] = tested on: Clostridium perfringens (13124); assay: microbe, parasite or virus in culture; format: cell-based; details: Clostridium perfringens (13124), anaerobe
[14] = tested on: Peptostreptococcus asaccharolytics (29743); assay: MIC, NCCLS broth microdilution; format: cell-based; details: anaerobe
Candida albicans (90028) = assay: MIC, antifungal assay; format: cell-based
Bacillus subtilis (6633) = assay: MIC, NCCLS broth microdilution; format: cell-based; details: Bacillus subtilis (6633)
AATACT = assay: DNase I footprint titration, AATACT site; format: binding; details: equilibrium association constant Ka; pH 7.0, 22° C.
ACTACT = assay: DNase I footprint titration, ACTACT site; format: binding; details: equilibrium association constant Ka; pH 7.0, 22° C.
[15] = Bacillus cereus, strain not stated

| Structure (SMILES) | MIC [1] | MIC (Bacillus cereus (11778); Bacillus cereus (11778)) [µg/mL] | MIC (Esherichia coli (25922)) | MIC [2] [µg/mL] | also measured |
| --- | --- | --- | --- | --- | --- |
| Cn1cc(NC(=O)c2cc(NC(=O)c3cc(NC(=O)c4nsc(NCCN)c4Cl)cn3C)cn2C)cc1C(=O)NCCC1=NCCN1 [V-qq] | 0.25 µg/mL (≈ 0.366 µM) | 0.25 (≈ 0.366 µM) | 32 µg/mL (≈ 46.8 µM) | 32 (≈ 46.8 µM) |  |
| COc1snc(C(=O)Nc2cc(C(=O)Nc3cc(C(=O)Nc4cc(C(=O)NCCC(=N)N)n(C)c4)n(C)c3)n(C)c2)c1Cl [V-jj] | 0.5 µg/mL (≈ 0.795 µM) | 0.25 (≈ 0.397 µM) | 32 µg/mL (≈ 50.9 µM) | 1 (≈ 1.59 µM) |  |
| COc1snc(C(=O)Nc2cc(C(=O)Nc3cc(C(=O)Nc4cc(C(=O)NCCNC(=N)N)n(C)c4)n(C)c3)n(C)c2)c1Cl [V-oo] | 0.25 µg/mL (≈ 0.388 µM) | 0.5 (≈ 0.776 µM) | 32 µg/mL (≈ 49.7 µM) | 1 (≈ 1.55 µM) |  |
| Cn1cc(NC(=O)c2cc(NC(=O)c3cc(NC(=O)c4nsc(NCC5CC5)c4Cl)cn3C)cn2C)cc1C(=O)NCCN1CCOCC1 [V-tt] | 0.5 µg/mL (≈ 0.703 µM) | 0.25 (≈ 0.351 µM) | 32 µg/mL (≈ 45 µM) | 32 (≈ 45 µM) |  |
| COCCCNc1snc(C(=O)Nc2cc(C(=O)Nc3cc(C(=O)Nc4cc(C(=O)NCCN5CCOCC5)n(C)c4)n(C)c3)n(C)c2)c1Cl [V-rr] | 1 µg/mL (≈ 1.37 µM) | 0.5 (≈ 0.686 µM) | 32 µg/mL (≈ 43.9 µM) | 32 (≈ 43.9 µM) |  |
| Cn1cc(NC(=O)c2cc(NC(=O)c3cc(NC(=O)c4nsc(N5CCCCC5)c4Cl)cn3C)cn2C)cc1C(=O)NCCN1CCOCC1 [V-hh] | 1 µg/mL (≈ 1.38 µM) | 1 (≈ 1.38 µM) | 32 µg/mL (≈ 44.1 µM) | 32 (≈ 44.1 µM) |  |
| CN(C)CCCNC(=O)c1cc(NC(=O)c2cc(NC(=O)c3cc(NC(=O)c4nsc(NCCCN(C)C)c4Cl)cn3C)cn2C)cn1C [V-q] | 8 to 16 µg/mL | 4 to 8 | >128 µg/mL |  | MIC [3]: 1 µg/mL (≈ 1.4 µM); MIC (Micrococcus luteus (381)): 8 µg/mL (≈ 11.2 µM); MIC [4]: 2 µg/mL (≈ 2.8 µM); MIC [5]: 16 µg/mL (≈ 22.4 µM); MIC [6]: 4 µg/mL (≈ 5.6 µM); MIC [7]: 4 µg/mL (≈ 5.6 µM); MIC [8]: 4 µg/mL (≈ 5.6 µM); MIC [9]: 1 µg/mL (≈ 1.4 µM); MIC [10]: 1 µg/mL (≈ 1.4 µM); MIC [11]: >128 µg/mL |
| Cn1cc(NC(=O)c2cc(NC(=O)c3cc(NC(=O)c4nsc(Cl)c4Cl)cn3C)cn2C)cc1C(=O)NCCC1=NCCN1 [V-uu] | 0.25 µg/mL (≈ 0.379 µM) | 1 (≈ 1.52 µM) |  |  |  |
| CN(C)CCCNC(=O)c1cc(NC(=O)c2cc(NC(=O)c3cc(NC(=O)c4nsc(NCCN)c4Cl)cn3C)cn2C)cn1C [V-c] | 8 µg/mL (≈ 11.9 µM) | 4 (≈ 5.95 µM) | >128 µg/mL |  | MIC [12]: 8 µg/mL (≈ 11.9 µM); MIC [3]: 2 µg/mL (≈ 2.98 µM); Binding Constant, sequence AGTACT (AGTACT): 5e+09 M⁻¹; Binding Constant, sequence ATTACT (ATTACT): 2e+08 M⁻¹; MIC (Micrococcus luteus (381)): 8 µg/mL (≈ 11.9 µM); MIC [4]: 2 µg/mL (≈ 2.98 µM); MIC [13]: 2 µg/mL (≈ 2.98 µM); MIC [14]: 0.5 µg/mL (≈ 0.744 µM); MIC [5]: 16 µg/mL (≈ 23.8 µM); MIC (Candida albicans (90028)): 8 µg/mL (≈ 11.9 µM); MIC (Bacillus subtilis (6633)): 4 µg/mL (≈ 5.95 µM); Binding Constant, sequence AATACT (AATACT): 2e+08 M⁻¹; MIC [6]: 4 µg/mL (≈ 5.95 µM); MIC [7]: 8 µg/mL (≈ 11.9 µM); MIC [8]: 8 µg/mL (≈ 11.9 µM); MIC [9]: 4 µg/mL (≈ 5.95 µM); Binding Constant, sequence ACTACT (ACTACT): 2e+08 M⁻¹; MIC [10]: 1 µg/mL (≈ 1.49 µM); MIC [11]: >128 µg/mL |
| Cn1cc(NC(=O)c2cc(NC(=O)c3cc(NC(=O)c4nsc(Cl)c4Cl)cn3C)cn2C)cc1C(=O)NCCC(=N)N [V-ee] | 0.25, μg/mL and 0.125 μg/mL | 0.25 (≈ 0.395 µM) | 64, μg/mL and 32 μg/mL | 2 (≈ 3.16 µM) |  |
| CN(C)CCCNC(=O)CCNC(=O)c1cc(NC(=O)c2cc(NC(=O)c3cc(NC(=O)c4nsc(Cl)c4Cl)cn3C)cn2C)cn1C [V-u] |  |  |  |  | Binding Constant, sequence AGTACT (AGTACT): 1e+11 M⁻¹; Binding Constant, sequence ATTACT (ATTACT): 5e+08 M⁻¹; Binding Constant, sequence AATACT (AATACT): 1e+08 M⁻¹; Binding Constant, sequence ACTACT (ACTACT): 1e+09 M⁻¹ |
| CN(C)CCCNC(=O)CCNC(=O)c1cc(NC(=O)c2cc(NC(=O)c3cc(NC(=O)c4nc(NC(=O)CCCNC(=O)c5cc(NC(=O)c6cc(NC(=O)c7cc(NC(=O)c8nsc(NCCCN(C)C)c8Cl)cn7C)cn6C)cn5C)cn4C)cn3C)cn2C)cn1C [VI-b] |  |  |  |  | Binding Constant, sequence AGTACT (AGTACT): 1e+11 M⁻¹; Binding Constant, sequence ATTACT (ATTACT): 7e+09 M⁻¹; Binding Constant, sequence AATACT (AATACT): 7e+09 M⁻¹; Binding Constant, sequence ACTACT (ACTACT): 7e+09 M⁻¹ |
| CN=C(N)CCNC(=O)c1cc(NC(=O)c2cc(NC(=O)c3cc(NC(=O)c4nsc(Cl)c4Cl)cn3C)cn2C)cn1C [V-pp] | 0.5 µg/mL (≈ 0.772 µM) | 0.5 (≈ 0.772 µM) | 32 µg/mL (≈ 49.4 µM) | 4 (≈ 6.18 µM) |  |
| Cn1cc(NC(=O)c2cc(NC(=O)c3cc(NC(=O)c4nsc(NCCCNC5CCCCC5)c4Cl)cn3C)cn2C)cc1C(=O)NCCCNC1CCCCC1 [V-ff] | 1 µg/mL (≈ 1.22 µM) | 2 (≈ 2.43 µM) | 32 µg/mL (≈ 38.9 µM) | 16 (≈ 19.5 µM) |  |
| CN(C)CCCNC(=O)c1cc(NC(=O)c2cc(NC(=O)c3cc(NC(=O)c4nsc(N5CCCCC5)c4Cl)cn3C)cn2C)cn1C [V-w] |  |  |  |  | MIC (Bacillus cereus (11778); [15]): 0.5 µg/mL (≈ 0.717 µM) |
| Cn1cc(NC(=O)c2cc(NC(=O)c3cc(NC(=O)c4nsc(Cl)c4Cl)cn3C)cn2C)cc1C(=O)NCCN1CCOCC1 [V-mm] | 0.5 µg/mL (≈ 0.739 µM) | 0.25 (≈ 0.37 µM) | 32 µg/mL (≈ 47.3 µM) | 32 (≈ 47.3 µM) |  |
| Cn1cc(NC(=O)c2cc(NC(=O)c3cc(NC(=O)c4nsc(NCCN5CCOCC5)c4Cl)cn3C)cn2C)cc1C(=O)NCCN1CCOCC1 [V-gg] | 2, μg/mL and 1 μg/mL |  | 32 µg/mL (≈ 41.5 µM) | 32 (≈ 41.5 µM) |  |
| CN(C)CCCNC(=O)CCNC(=O)c1cc(NC(=O)c2cc(NC(=O)c3cc(NC(=O)c4nc(NC(=O)CCCNC(=O)c5cc(NC(=O)c6cc(NC(=O)c7cc(NC(=O)c8nsc(Cl)c8Cl)cn7C)cn6C)cn5C)cn4C)cn3C)cn2C)cn1C [VI-a] |  |  |  |  | Binding Constant, sequence AGTACT (AGTACT): 2e+10 M⁻¹; Binding Constant, sequence ATTACT (ATTACT): 2e+09 M⁻¹; Binding Constant, sequence AATACT (AATACT): 2e+09 M⁻¹; Binding Constant, sequence ACTACT (ACTACT): 2e+09 M⁻¹ |
| CN=C(CCNC(=O)c1cc(NC(=O)c2cc(NC(=O)c3cc(NC(=O)c4nsc(Cl)c4Cl)cn3C)cn2C)cn1C)NC [V-nn] | 0.031 µg/mL (≈ 0.0469 µM) | 0.064 (≈ 0.0967 µM) | 32 µg/mL (≈ 48.4 µM) | 1 (≈ 1.51 µM) |  |
| Cn1cc(NC(=O)c2cc(NC(=O)c3nsc(NCCN4CCOCC4)c3Cl)cn2C)cc1C(N)=O [V-bb] |  |  |  |  | MIC (Bacillus cereus (11778); [15]): 8 µg/mL (≈ 15 µM) |
